The source of these data is patent US20220326219A1, “METHODS AND DEVICE FOR THE ANALYSIS OF TISSUE SAMPLES” (PRECOMB THERAPEUTICS AG, priority 2019, published 2022).

Assay [1] relates to living, perfused microvessels (vasculature) of in vitro vascularized microtumors. To be noted: VMT platform, Sobrino et al. 2016; cited from earlier work.
The subject of assay [2] is pancreatic pdx microtumors 12558. Description: Drug efficacy on PDX-derived pancreatic microtumors by tumor growth kinetics over 11 days. The note with it: drugs at cmax values in vivo, 11 days monitoring. Type of assay: cell-based.
Assay [3] deals with pancreatic patient-derived xenograft. The assay is described as follows: In vivo efficacy in pancreatic patient-derived xenograft (PDX-mouse model). To be noted: average response of 5 individual animals. Here is the method: To compare whether the in vitro efficacy analysis is matching in vivo (mouse) efficacy drug response data as obtained, pancreatic patient-derived xenograft (PDX-mouse model) and pancreatic microtumors derived from PDX tumor tissue were generated. Two single drugs (Gemcitabine and Abraxane) and two drug combinations (Gemcitabine:Erlotinib and Gemcitabine:Abraxane) were tested. In vivo data points reflect the average response of 5 individual animals.

Molecules are shown by their SMILES.

In the case of `N#CC1(c2ccc(NC(=O)c3cccnc3NCc3ccncc3)cc2)CCCC1` [Apatinib], the “effect on vasculature of vascularized microtumors” value in assay [1] is listed as “not effective”.
On to `Nc1ccn([C@@H]2O[C@H](CO)[C@@H](O)C2(F)F)c(=O)n1` [Gemcitabine], for which the “drug efficacy on microtumors (t11/t0 and t11treated/t11control)” value in assay [2] is reported as “highest efficacy”. Further, the “in vivo (mouse) efficacy drug response” value in assay [3] is on record as “highest efficacy”.
For the compound `O=C1[O][Pt]2([NH][C@@H]3CCCC[C@H]3[NH]2)[O]C1=O` [Oxaliplatin], in assay [2], the “drug efficacy on microtumors (t11/t0 and t11treated/t11control)” value is “least effective”.
